One test has as its system SDF1 promoter. The test is described as follows: SDF1 promoter luciferase reporter assay (pGL3b.SDF1.full) in HMEC-1. Particulars: 0.1 mM cobalt chloride, 12 hours, HMEC-1 transfected with pGL3b.SDF1.full. Type of test: cell-based, human. The source says:
The 1.4 kb 5′ SDF1 promoter region was cloned into the luciferase reporter vector pGL3-Basic (Promega) generating pGL.SDF1.full. 5′ deletion constructs were generated from pGL.SDF1.full using unique internal restriction sites SmaI/SacI, and XhoI. HBS-only contructs (HBS1, HBS2, or both) were generated by PCR and cloned into pGL3-Promoter (Promega). HBS1 was mutated using the mega-primer method (primers listed below) (Kammann et al., “Rapid Insertional Mutagenesis of DNA by Polymerase Chain Reaction (PCR),” Nucleic Acids Res. 17:5404 (1989), which is hereby incorporated by reference in its entirety). All constructs were sequenced to confirm their identity. Reporter plasmids were co-transfected with a constitutively expressed Renilla luciferase construct (pHRL-TK, Promega) into HMECs using the Genejammer reagent (Stratagene). 48 hours after transfection, cells were incubated in hypoxia or normoxia with and without 0.1 mM cobalt chloride (CoCl2) for 12 hours. Luciferase activity was determined using the Dual Luciferase System (Promega) and data were normalized to Renilla luciferase expression from at least four independent experiments. Co-transfection experiments using plasmids for oxygen […] HIF-1α (HIF-1.ΔODD) and the HIF-1α dominant negative (HIF-1.DN) were compared to control transfections using the appropriate empty vector (pcDNA3.1 and pCEP4, respectively) for each construct. […]
In general terms: A reporter such as luciferase makes a cellular process visible.

The target of test [1] is CXCR4 on human endothelial progenitor cells (EPCs) (human) (UniProt P61073). The test can be described thus: cell-based or functional assay.
Chain of UniProt P61073 (P61073 whole entry): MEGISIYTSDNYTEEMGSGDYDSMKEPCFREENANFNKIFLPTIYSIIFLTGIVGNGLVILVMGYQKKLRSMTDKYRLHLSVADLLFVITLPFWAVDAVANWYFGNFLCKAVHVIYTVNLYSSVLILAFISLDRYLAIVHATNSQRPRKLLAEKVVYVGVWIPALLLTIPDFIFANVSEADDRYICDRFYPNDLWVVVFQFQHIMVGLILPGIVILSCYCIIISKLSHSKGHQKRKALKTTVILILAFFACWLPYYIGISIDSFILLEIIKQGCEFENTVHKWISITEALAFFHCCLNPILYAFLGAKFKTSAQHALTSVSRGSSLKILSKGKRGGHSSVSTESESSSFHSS
A further test concerns EPCs. The test is described as follows: Migration assay (modified transwell) of EPCs. Type of test: cell-based, human. Particulars: 6 hour migration period. On the procedure:
Migration was studied using a modified transwell assay. EPCs (5×10^4) were seeded onto ChemoTx filters (5.7 mm, 8 μm pore, Neuro Probe) in EBM/0.5% FBS. […] Following the 6 hour migration period, nonmigrating cells were completely wiped from the top surface of the membrane. Migrating cells adherent to the undersurface of the filters were quantified using DAPI staining (Vector) with Kodak 1D software. Results are indicative of four independent experiments.

The test system of test [2] is CXCR4+ EPCs / HUVEC monolayers. The test is described as follows: Adhesion assay of DiI-labeled CXCR4+ EPCs to HUVEC monolayers. It counts as cell-based, human. The note with it: monolayers pre-coated for 20 minutes with recombinant SDF-1. On the procedure:
Confluent HUVEC monolayers were subjected to normoxic or hypoxic culture for 6 hours. Human SDF-1αβ/PBSF (100 ng/ml, Sigma) was added where indicated. DiI-labeled EPCs (5×10^4) in EBM/0.5% FBS were added to each preconditioned monolayer and pre-adhesion fluorescence was measured using a Cytofluor 2320 (Millipore). After 3 hours, nonadherent cells were washed away, and post-adhesion fluorescence was measured. The percentage of adherent
cells was calculated using the following formula: [formula] Results are representative of three independent experiments.
HIF-1α siRNA (Berra et al, “HIF Prolyl-hydroxylase 2 is the Key Oxygen Sensor Setting Low Steady-state Levels of HIF-1α in Normoxia,” Embo. J. 22:4082-4090 (2003), which is hereby incorporated by reference in its entirety) (synthesized by Qiagen) was transfected into HUVECs using RNAiFect (Qiagen) in parallel with Lamin A/C and FITC-labeled control siRNAs according to the manufacturer=3 s protocol. Cells were treated with normoxic or hypoxic conditions starting 24 hours following transfection. Gene expression and adhesion assays were performed at 48 hours.

“Also recorded” adds a separate entry of the source.

`[Cl][Co][Cl]` [cobalt chloride]: the SDF1-specific luciferase expression entry in the test on SDF1 promoter was “four-fold”.

As to “neutralizing CXCR4 antibody (Clone 44716, R&D Systems)”, the EPC migration toward hypoxia-conditioned media after preincubating EPCs with neutralizing CXCR4 antibodies (HM+ab) in test [1] came to 175 cells/hpf.

Turning to “recombinant SDF-1: Recombinant human SDF-1αβ/PBSF (Sigma), chemokine”, the “EPC migration, effect in words” value in the test with EPCs is “EPC migration increased”. The “adhesion of CXCR4+ EPCs to normoxic HUVEC monolayers” value in test [2] is “Increased adhesion; also recorded: adhered more EPCs”.

The record behind these values is US20060154860A1, “Manipulating stem-progenitor cell trafficking to injured tissue and/or tumors by altering HIF-1 and/or SDF-1 activity” (priority 2004, published 2006).
